Laboratory results reported in patent US20240226048A1, “METHODS OF TREATMENT USING BEMPEDOIC ACID” (Esperion Therapeutics, Inc., priority 2023, published 2024).

Assay: CLEAR OUTCOMES trial: time-to-event cardiovascular efficacy end points
Type: in vivo, human
Settings: for Primary efficacy endpoint (MACE-4), Hazard Ratio (95% CI): Cox proportional hazards, P 0.004; for Fatal and non-fatal MI, Hazard Ratio (95% CI): P 0.002; for 3-component MACE, Hazard Ratio (95% CI): P 0.006
Description: The CLEAR OUTCOMES trial was a randomized, placebo-controlled, double-blind trial that enrolled patients at 1250 sites in 32 countries. An independent Data Monitoring Committee reviewed safety and efficacy data during the trial.
Patients 18 to 85 years of age were eligible for enrollment if they met either of two criteria for increased cardiovascular risk, a prior cardiovascular event (secondary prevention) or clinical features that placed them at high risk for a cardiovascular event (primary prevention). (Nicholls S, Lincoff A M, Bays H E, et al. Rationale and design of the CLEAR-outcomes trial: Evaluating the effect of bempedoic acid on cardiovascular events in patients with statin intolerance. Am Heart J. 2021 May; 235: 104-112) All patients provided written informed consent. Patients had to report statin intolerance due to an adverse effect that started or increased during statin therapy and resolved or improved after statin therapy was discontinued. Patients could be enrolled if they tolerated a very low average daily statin dose (e.g., an average daily dose of rosuvastatin <5 mg, atorvastatin <10 mg, simvastatin <10 mg, lovastatin <20 mg, pravastatin <40 mg, fluvastatin <40 mg, or pitavastatin <2 mg). Other lipid-lowering therapies were permitted, including ezetimibe, niacin, bile acid resins, fibrates, and/or proprotein convertase subtilisin kexin type 9 (PCSK9) inhibitors. Full inclusion and exclusion criteria are provided in Nicholls et al. (Am Heart J. 2021).
Eligible patients entered a 4-week run-in period during which patients were treated with single-blind placebo. If patients were intolerant to placebo treatment or if adherence was <80% by tablet count, they were not eligible for randomization. Patients who successfully completed the run-in period were randomly assigned in a 1:1 ratio to receive bempedoic acid at an oral dose of 180 mg or matching placebo, administered daily. Beginning 6 months after enrollment, the central laboratory notified the investigator if the patient's LDL-cholesterol level was ≥25% higher than baseline. These patients were counseled on healthy dietary guidelines and reminded to take all lipid-regulating medications. If repeat testing confirmed that LDL-cholesterol value met the threshold criteria, the provider could adjust the lipid-lowering treatment regimen per standard of care and local guidelines.
The primary end point was the first occurrence of a composite of death from cardiovascular causes, nonfatal myocardial infarction (MI), nonfatal stroke, or coronary revascularization. The first key secondary end point was time to the first occurrence of the composite of cardiovascular death, nonfatal stroke or MI. Further key secondary end points included time to first occurrence of each of the following outcomes tested in hierarchical order, fatal or nonfatal MI, coronary revascularization, fatal or nonfatal stroke, death from cardiovascular causes, and all-cause mortality.
This was an event-driven trial designed to provide at least 90% power to detect a 15% relative risk reduction for the primary composite end point at an overall two-sided significance level of 0.05. The trial required a minimum of 1620 primary composite events with >24 months of follow-up for all patients and at least 810 first key secondary end points. The average treatment duration was estimated to be 42 months and a lost-to-follow-up rate of 1% per year. Assuming a 3.59% annual event rate in the placebo group, enrollment of 12,600 patients was required, subsequently amended to 14,000. There were no interim efficacy analyses. A hierarchical approach was prespecified to evaluate sequentially each of the six key secondary efficacy end points with statistical significance at each step required to test the next hypothesis, thereby preserving the study-wise Type I error rate at 5%. All analyses were based on the intent-to-treat principle. […]

[1] = prespecified subgroup, interaction P=0.03
[2] = vs placebo, listed as bempedoic acid

## CC(C)(CCCCCC(O)CCCCCC(C)(C)C(=O)O)C(=O)O [Bempedoic Acid, Bempedoic acid]
180 mg oral daily, N = 6992
  3-component MACE, % of patients: 8.2%
  5 component MACE, % of patients: 11.9%
  All-cause mortality, % of patients: 6.2%
  All-cause mortality, nonfatal MI, nonfatal stroke, or coronary revascularization, % of patients: 13.8%
  All-cause mortality, nonfatal MI, nonfatal stroke, or coronary revascularization, number of patients: 962 number of patients
  All-cause mortality, number of patients: 434 number of patients
  Coronary revascularization, % of patients: 6.2%
  Coronary revascularization, number of patients: 435 number of patients
  Death from cardiovascular causes, % of patients: 3.8%
  Death from cardiovascular causes, number of patients: 269 number of patients
  Fatal MI, % of patients: 0.4%
  Fatal MI, number of patients: 29 number of patients
  Fatal and non-fatal MI, % of patients: 3.7%
  Fatal and non-fatal MI, number of patients: 261 number of patients
  Fatal and non-fatal stroke, % of patients: 1.9%
  Fatal and non-fatal stroke, number of patients: 135 number of patients
  Fatal and nonfatal hemorrhagic stroke, % of patients: 0.3%
  Fatal and nonfatal hemorrhagic stroke, number of patients: 20 number of patients
  Fatal and nonfatal non-hemorrhagic stroke, % of patients: 1.7%
  Fatal and nonfatal non-hemorrhagic stroke, number of patients: 118 number of patients
  Fatal stroke, % of patients: 0.3%
  Fatal stroke, number of patients: 18 number of patients
  Hospitalization for unstable angina, % of patients: 1.3%
  Hospitalization for unstable angina, number of patients: 91 number of patients
  Non-fatal MI, % of patients: 3.4%
  Non-fatal MI, number of patients: 236 number of patients
  Non-fatal stroke, % of patients: 1.7%
  Non-fatal stroke, number of patients: 119 number of patients
180 mg oral daily, N = 6992, median follow-up 40.6 months
  Primary efficacy endpoint (MACE-4), % of patients: 11.7%
MACE-4 or hospitalization for unstable angina (MACE-5), 180 mg oral daily, N = 6992
  5 component MACE, number of patients: 831 number of patients
Compared with placebo
  effect on other key secondary end points: time to first occurrence of stroke, death from cardiovascular causes, all-cause mortality: no significant effects
Death from cardiovascular causes, nonfatal MI, nonfatal stroke, or coronary revascularization, 180 mg oral daily, N = 6992, median follow-up 40.6 months
  Primary efficacy endpoint (MACE-4), number of patients: 819 number of patients
Death from cardiovascular causes, nonfatal MI, or nonfatal stroke (MACE-3), 180 mg oral daily, N = 6992
  3-component MACE, number of patients: 575 number of patients
n/N in patients with baseline glycemic status of no diabetes, 180 mg oral daily
  New-onset type 2 diabetes mellitus, number of patients: 429/3848
Patients with baseline glycemic status of no diabetes, 180 mg oral daily
  New-onset type 2 diabetes mellitus, % of patients: (11.1) %
[1]
  HR for the primary end point, primary prevention population: 0.68
  HR for the primary end point, secondary prevention population: 0.91
Vs placebo
  5 component MACE, Hazard Ratio (95% CI): 0.86 (0.78-0.94)
  All-cause mortality, Hazard Ratio (95% CI): 1.03 (0.90-1.18)
  All-cause mortality, nonfatal MI, nonfatal stroke, or coronary revascularization, Hazard Ratio (95% CI): 0.89 (0.82-0.97)
  Death from cardiovascular causes, Hazard Ratio (95% CI): 1.04 (0.88-1.24)
  Fatal MI, Hazard Ratio (95% CI): 1.38 (0.79-2.42)
  Fatal and non-fatal stroke, Hazard Ratio (95% CI): 0.85 (0.67-1.07)
  Fatal and nonfatal hemorrhagic stroke, Hazard Ratio (95% CI): 2.21 (1.01-4.85)
  Fatal and nonfatal non-hemorrhagic stroke, Hazard Ratio (95% CI): 0.78 (0.61-0.99)
  Fatal stroke, Hazard Ratio (95% CI): 1.12 (0.57-2.20)
  Hospitalization for unstable angina, Hazard Ratio (95% CI): 0.66 (0.50-0.86)
  Non-fatal stroke, Hazard Ratio (95% CI): 0.82 (0.64-1.05)
  reduction in coronary revascularization: 19%
  reduction in the composite of death from cardiovascular causes, stroke or MI: 15%
  reduction in the incidence of fatal or nonfatal MI: 23%
  reduction in the primary composite end point (death from cardiovascular causes, stroke, MI, or coronary revascularization): 13%
  Primary efficacy endpoint (MACE-4), Hazard Ratio (95% CI): 0.87 (0.79-0.96)
  Fatal and non-fatal MI, Hazard Ratio (95% CI): 0.77 (0.66-0.91)
  3-component MACE, Hazard Ratio (95% CI): 0.85 (0.76-0.96)
[2]
  Primary efficacy endpoint (MACE-4), Hazard Ratio (95% CI): 0.87
  Fatal and non-fatal MI, Hazard Ratio (95% CI): 0.77
  3-component MACE, Hazard Ratio (95% CI): 0.85
Vs placebo, P 0.001
  Coronary revascularization, Hazard Ratio (95% CI): 0.81
Vs placebo, patients with no diabetes at baseline
  New-onset type 2 diabetes mellitus, Hazard Ratio (95% CI): 0.95 (0.83-1.09)
